# Entries after “also recorded” stand apart in the source; their conditions may differ. Read-outs that look alike come from different tables or passages of the source.
# Experiments:
# [1] = test system: serum iron; assay: Serum iron reduction after subcutaneous administration in the rat (hepcidin mimetic activity); assay type: in vivo; settings: 7.5 mg/kg
# Protocol: (§1) Compounds 1-4 were tested in rats to determine compound pharmacokinetics and hepcidin mimetic activity in vivo as measured by serum iron reduction. The effectiveness of the compounds for serum iron reduction should correlate with the treatment of iron metabolism disorders. Individual compounds, in this example and the following examples were generally formulated in DSPE-PEG(2000) (SUNBRIGHT® DSPE-020CN, NOF America Corporation) (30 mg/mL) and dosed subcutaneously at a compound dose of 7.5 mg/kg.
# (§2) The compound was prepared according to the following typical preparation. The dosing solution was prepared (7.5 mg compound/mL in clear solution) by weighing the compound into vial and an aliquot of ethanol is added into the vial and mixture vortexed. DSPE-020CN was added and the solution was vortexed, and, if necessary, the mixture was heated at 37° C. for 10-15 minutes to fully dissolve the DSPE-020CN. The ethanol was evaporated with nitrogen gas stream for 1-3 hours. Sterile water was then added and the mixture was vortexed or, if necessary, sonicated to give a clear solution.
# Serum iron was measured during the 24 h following subcutaneous administration in a rat of Compounds 1-4 and is summarized in FIG. 1. […] The observed effects on serum iron were unexpectedly similar in Compounds 1-3 despite the differences at Cysteine 7 and the differences in blood levels of the compounds (Table 7).
# [2] = Compound blood levels after subcutaneous administration in the rat (LC/MS); assay type: in vivo; settings: 7.5 mg/kg
# Protocol: as §1, §2
# After subcutaneous injection compound quantities in blood were measured over the subsequent 24 hours via LC/MS.
# [3] = Stability of Compound 1 pH 6 formulations at 40° C. with antioxidants (HPLC % AUC); assay type: physicochemical
# Protocol: Initially the stability of Compound 1 was previously characterized and there was significant degradation observed by HPLC after about 24 hours at 40° C. […] The effect of various antioxidants and thiol scavengers that might be used in a medicament were studied.
# [4] = Stability in sodium acetate buffer pH 6 at two temperatures, reversed-phase HPLC; assay type: physicochemical; settings: for % Purity of the Compound, 6 Hours 25° C. / % Purity of the Compound, 6 Hours 40° C.: sodium acetate buffer pH 6, 6 hours; for Change in Main Peak % Area After 18 H Incubation, 40° C. / Change in Main Peak % Area After 18 H Incubation, 25° C.: sodium acetate buffer pH 6, 18 h; for % Purity of the Compound, 18 Hours 40° C. / % Purity of the Compound, 18 Hours 25° C.: sodium acetate buffer pH 6, 18 hours; for % Purity of the Compound, Initial: sodium acetate buffer pH 6, initial
# Protocol: Three other compounds were also tested, Compound 2, Compound 3, and Compound 4. Compounds 2, 3, and 4 are modifications of Compound 1 at the sidechain of Cysteine 7. Compound 2 has a disulfide bond attached to Cysteine 7, Compound 3 has thioester bond attached to Cysteine 7, and Compound 4 has an ethyl group attached to the sidechain sulfur of Cysteine 7. The peptides were incubated in sodium acetate buffer pH 6 at two temperature conditions and then analyzed via reversed-phase HPLC. The chromatography performed was with an Ascentis Phenyl 2.7 micron column (4.6×150 mm). The binary gradient (1 ml/min) was 36% to 56% B in 40 minutes followed by an increase to 65% B in 5 minutes where A=0.1% trifluoroacetic acid in water and B=0.1% trifluoroacetic acid in acetonitrile.
# [5] = In vitro stability of compounds in rat plasma (37° C.); assay type: in vitro ADME
# Protocol: The in vitro stability of Compounds 1-4 in rat plasma at 37° C. was examined to give an indication of stability in a whole animal model (Table 6).
# [6] = assay type: physicochemical
# Protocol: An additional critical aspect in drug delivery is retention of solubility with time (physical stability), especially under refrigerated conditions. […] Unexpectedly, clear differences in physical stability were observed between Compound 5 and other compounds with only minor changes in sequence (e.g. Compounds 7 and 8). The combination of unexpected solubility of greater than 100 mg/mL in mildly acidic conditions and lack of significant changes in solution character after refrigeration, are unexpected and advantageous for a pharmaceutical product.
# [7] = physchem; assay type: physicochemical
# Protocol: Different solvent compositions with different properties that are commonly used as a basis for pharmaceutical compositions were added to known quantities of the indicated compound and mixed. If a clear solution was not obtained, additional solvent was added and the solution mixed. […] For example “50-100” would indicate that the compound was not soluble at 100 mg/mL but upon additional solvent to have a final concentration of 50 mg/mL, the compound was soluble.
SMILES,reduction in serum iron (in words) [1],significant degradation peaks observed by HPLC [4],"% Purity of the Compound, 6 Hours 25° C. [4]","% Purity of the Compound, 6 Hours 40° C. ([4]; 40° C.)","Change in Main Peak % Area After 18 H Incubation, 40° C. ([4]; 40° C.)","% Purity of the Compound, 18 Hours 40° C. ([4]; 40° C.)","% Purity of the Compound, Initial [4]","AUC(0-t) ([2]; in vivo, sc)","blood levels of Compound 1 (metabolite) after dosing the labelled compound ([2]; in vivo, sc)",degradation after 18 hours at 40° C. (in words) [4],"Change in Main Peak % Area After 18 H Incubation, 25° C. [4]","% Purity of the Compound, 18 Hours 25° C. [4]",In vitro plasma stability (Ratio of compound/benfluorex (std) degradation) [5],"half-life ([5]; rat, plasma)",also measured
"CCCCCCCCCCCCCCCCNC(=O)CN(CC(N)=O)C(=O)CCCCCNC(=O)C(Cc1c[nH]c2ccccc12)NC(=O)C(CCCNC(=N)N)NC(=O)C(CS)NC(=O)C(CCCNC(=N)N)NC(=O)CC1CCCN1C(=O)C(NC(=O)C(Cc1c[nH]cn1)NC(=O)C(NC(=O)CNCC(=O)O)C(C)O)C(c1ccccc1)c1ccccc1 (stereo not drawn) [Compound 1, reference compound]",significant drop in serum iron level,a single major peak,58.9%,11.9%,−95-100%,<5%,96.9%,–,–,–,–,–,–,–,"AUC(0-t) ([2]; sc, subcutaneous, blood, dosed compound itself, read-out: AUC(0-24) (hr*ng/mL, mean ± SD)): 2750 ng·h/mL; blood levels of the dosed compound (in words) ([2]; subcutaneous): remains little changed out to at least 24 hours; main peak (% AUC) lost ([3]; after about 24 hours at 40° C., no antioxidant): 90%; Difference (%) (T24 − T0) ([3]; pH 6 formulation, antioxidant 10 mM or none, 40° C.): −90%; Main peak % AUC, T0 ([3]; pH 6 formulation, antioxidant 10 mM or none, 40° C., T0): 94.4 % AUC; Main peak % AUC, T ~24 hours ([3]; pH 6 formulation, antioxidant 10 mM or none, 40° C., ~24 hours): ~4.0 (estimated) % AUC; degradation after 18 hours at 40° C. (in words) ([4]; 18 hours, 40° C.): almost completely degraded; In vitro plasma stability (Ratio of compound/benfluorex (std) degradation) ([5]; rat plasma, 37° C.): 0.41; half-life ([5]; rat plasma, 37° C., read-out: In vitro plasma stability (T ½)): 23 min"
CCCCCCCCCCCCCCCCNC(=O)CN(CC(N)=O)C(=O)CCCCCNC(=O)C(Cc1c[nH]c2ccccc12)NC(=O)C(CCCNC(=N)N)NC(=O)C(CSSC)NC(=O)C(CCCNC(=N)N)NC(=O)CC1CCCN1C(=O)C(NC(=O)C(Cc1c[nH]cn1)NC(=O)C(NC(=O)CNCC(=O)O)C(C)O)C(c1ccccc1)c1ccccc1 (stereo not drawn) [Compound 2],–,no significant degradation peak,99.6%,99.4%,−0.1%,99.4%,99.5%,1010 ng·h/mL,unexpectedly higher than expected,little degradation observed,−0.2%,99.3%,0.98,40 min,"Solution Appearance after 7 days Storage at 2-8° C., 2% Tween 80 pH 5 ([6]; 2% Tween 80 pH 5): Gel; Solution Appearance after 7 days Storage at 2-8° C., 2% Tween pH 6.4 ([6]; 2% Tween pH 6.4): Gel; Solution Appearance after 7 days Storage at 2-8° C., 10% Tween 80 pH 2.3-2.8 ([6]; 10% Tween 80 pH 2.3-2.8): Gel; Solution Appearance after 7 days Storage at 2-8° C., 10% Tween 80 pH 4.5-5.0 ([6]; 10% Tween 80 pH 4.5-5.0): Gel; Solution Appearance after 7 days Storage at 2-8° C., 30% PEG 400 ([6]; 30% PEG 400): Gel; Solution Appearance after 7 days Storage at 2-8° C., 50% EtOH/water ([6]; 50% EtOH/water): Gel; Solution Appearance after 7 days Storage at 2-8° C., 50% propylene glycol, pH 2.7 ([6]; 50% propylene glycol, pH 2.7): Gel; Solution Appearance after 7 days Storage at 2-8° C., Water ([6]; Water): Gel; solubility ([7]; Solubility (mg/mL) at Ambient Temperature, 30% PEG 400): 25 to 35 mg/mL; solubility ([7]; Solubility (mg/mL) at Ambient Temperature, 50% EtOH/water): > 100 mg/mL; solubility ([7]; Solubility (mg/mL) at Ambient Temperature, Water): 50 to 100 mg/mL; solubility ([7]; pH 2.3, Solubility (mg/mL) at Ambient Temperature, 10% Tween 80 pH 2.3-2.8): 60 to 100 mg/mL; solubility ([7]; pH 2.7, Solubility (mg/mL) at Ambient Temperature, 50% propylene glycol, pH 2.7): 50 to 100 mg/mL; change of solubility with pH (in words) ([7]; pH 4): marked decrease in solubility above pH 4; solubility ([7]; pH 4.5, Solubility (mg/mL) at Ambient Temperature, 10% Tween 80 pH 4.5-5.0): 50 to 100 mg/mL; solubility ([7]; pH 5, Solubility (mg/mL) at Ambient Temperature, 2% Tween 80 pH 5): < 50 mg/mL; solubility ([7]; pH 5.5, Solubility (mg/mL) at Ambient Temperature, 10% Tween 80 pH 5.5-6.0): 25 to 30 mg/mL; solubility ([7]; pH 6.4, Solubility (mg/mL) at Ambient Temperature, 2% Tween pH 6.4): < 10 mg/mL"
CCCCCCCCCCCCCCCCNC(=O)CN(CC(N)=O)C(=O)CCCCCNC(=O)C(Cc1c[nH]c2ccccc12)NC(=O)C(CCCNC(=N)N)NC(=O)C(CSC(C)=O)NC(=O)C(CCCNC(=N)N)NC(=O)CC1CCCN1C(=O)C(NC(=O)C(Cc1c[nH]cn1)NC(=O)C(NC(=O)CNCC(=O)O)C(C)O)C(c1ccccc1)c1ccccc1 (stereo not drawn) [Compound 3],–,multiple major peaks,96.9%,84.9%,−30%,67.2%,97.3%,12200 ng·h/mL,comparable to the levels observed when just Compound 1 was dosed,–,−2.3%,95.1%,1.78,73 min,"blood levels relative to those observed in Compound 1 ([2]; in vivo, sc): 5-9 times; degradation after 18 hours at 40° C. [4]: 30%"
CCCCCCCCCCCCCCCCNC(=O)CN(CC(N)=O)C(=O)CCCCCNC(=O)C(Cc1c[nH]c2ccccc12)NC(=O)C(CCCNC(=N)N)NC(=O)C(CSCC)NC(=O)C(CCCNC(=N)N)NC(=O)CC1CCCN1C(=O)C(NC(=O)C(Cc1c[nH]cn1)NC(=O)C(NC(=O)CNCC(=O)O)C(C)O)C(c1ccccc1)c1ccccc1 (stereo not drawn) [Compound 4],minimal reduction in serum iron after 24 h; also recorded: little activity in vivo,–,96.8%,96.6%,0.3%,97.0%,96.7%,25600 ng·h/mL,No levels of Compound 1 were detected,no evidence of degradation involving the cysteine,−0.5%,96.2%,2.74,112 min,"blood levels of the dosed compound (in words) ([2]; in vivo, sc): very high blood levels"

# Reference: patent publication US9315545B2, “Hepcidin mimetic peptides and uses thereof” (MERGANSER BIOTECH, INC., priority 2014, dated 2016)
